Measured values published in patent US6828316B2, “Diamide compound and medicine containing the same” (Kowa Co., Ltd., priority 1996, dated 2004).
Structures can show the parent of a compound that is named as a salt.

The compounds below were run on production of IgE antibody (assay: Evaluation of inhibitory effect on production of IgE antibody). Conditions: B-cell; test agent at a concentration of 10^−5 M; mouse (Balb/C) spleen B cells cultured with LPS then mouse IL-4; IgE in culture supernatant by ELISA.
Format: cell-based
Method: Evaluation of Inhibitory Effect on Production of IgE Antibody
A spleen was enucleated from a mouse (Balb/C, male, aged 8 weeks) and shredded in 0.3% BSA/HBSS to prepare single cells by means of a 200-mesh screen. Further, the single cells were hemolyzed by 0.75% ammonium chloride-17 mM Tris solution to prepare a splenocyte suspension (1×10^7/ml) using RPMI 1640 medium/25 mM HPES/0.3% BSA. After the suspension was reacted with a mouse anti-mouse Thy-1.2 monoclonal antibody at 4° C. for 1 hour, the reaction mixture was centrifuged, and the sediment cells were suspended again (1×10^7/ml, RPMI/HPES/BAS). After the suspension was then reacted with a low-cytotoxic rabbit complement (product of Cedarlane Co.) at 37° C. for 1 hour, killed cells were removed by specific gravity centrifugation using lympholyte M (product of Cedarlane Co.) to obtain a B cell fraction as viably cells.
After B cells (10^5/0.2 ml/well) were cultured for a day together with LPS (E. coli 026:B6, product of DIFCO Co.) using a 96-well plate, mouse IL-4 (product of Genzyme Co.) was added to conduct culture further for 7 days.
Each test agent was added on the first day of the culture, and the amount of IgE in a culture supernatant was measured by ELISA, thereby calculating out the inhibitory effect of the agent on the production of an IgE antibody.

| Compound | inhibition at 10 µM [%] |
| --- | --- |
| O=C(/C=C/C=C/c1ccccc1)N1CCCN(C(=O)/C=C/C=C/c2ccccc2)CC1 [Example 1, 1,4-bis[5-phenylpenta-(2E,4E)-dienoyl]hexahydro-1,4-diazepine] | 100 |
| COc1cc(/C=C/C=C/C(=O)N2CCCN(C(=O)/C=C/C=C/c3cc(OC)c(OC)c(OC)c3)CC2)cc(OC)c1OC [Example 17, 1,4-bis[5-(3,4,5-trimethoxyphenyl)-penta-(2E,4E)-dienoyl]hexahydro-1,4-diazepine] | 100 |
| O=C(/C=C/C=C/c1ccccn1)N1CCCN(C(=O)/C=C/C=C/c2ccccn2)CC1 [Example 19, 1,4-bis[5-(2-pyridyl)penta-(2E,4E)-dienoyl]hexahydro-1,4-diazepine] | 20 |
| O=C(/C=C/C=C/c1cccc2cccnc12)N1CCCN(C(=O)/C=C/C=C/c2cccc3cccnc23)CC1 [Example 25, 1,4-bis[5-(8-quinolyl)penta-(2E,4E)-dienoyl]hexahydro-1,4-diazepine] | 100 |
| COc1cc(/C=C/C=C/C(=O)N2CCN(C(=O)/C=C/C=C/c3cc(OC)c(OC)c(OC)c3)CC2)cc(OC)c1OC [Example 29, 1,4-bis[5-(3,4,5-trimethoxyphenyl)-penta-(2E,4E)-dienoyl]piperazine] | 100 |
| O=C(/C=C/C=C/c1cccc2cccnc12)N1CCN(C(=O)/C=C/C=C/c2cccc3cccnc23)CC1 [Example 32, 1,4-bis[5-(8-quinolyl)penta-(2E,4E)-dienoyl]piperazine] | 85 |
| COc1cc(/C=C/C=C/C(=O)N2CCN(C(=O)/C=C/C=C/c3cc(OC)c(OC)c(OC)c3)C(C(=O)O)C2)cc(OC)c1OC (stereo not shown) [Example 34, 1,4-bis[5-(3,4,5-trimethoxyphenyl)-penta-(2E,4E)-dienoyl]piperazine-2-carboxylic acid] | 90 |
| COc1cc(/C=C/C=C/C(=O)N2CCN(C(=O)/C=C/C=C/c3cc(OC)c(OC)c(OC)c3)C(CN(C)C)C2)cc(OC)c1OC (stereo not shown) [Example 36, 1,4-bis[5-(3,4,5-trimethoxyphenyl)-penta-(2E,4E)-dienoyl]-2-(N,N-dimethylaminomethyl)-piperazine hydrochloride] | 100 |
| COc1cc(/C=C/C=C/C(=O)N2CCN(C(=O)/C=C/C=C/c3cc(OC)c(OC)c(OC)c3)c3ccccc32)cc(OC)c1OC [Example 41, 1,4-bis[5-(3,4,5-trimethoxyphenyl)-penta-(2E,4E)-dienoyl]-1,2,3,4-tetrahydroquinoxaline] | 100 |
| COc1cc(/C=C/C=C/C(=O)N2CCN(C(=O)/C=C/C=C/c3cc(OC)c(OC)c(OC)c3)c3ncccc32)cc(OC)c1OC [Example 42, 1,4-bis[5-(3,4,5-trimethoxyphenyl)-penta-(2E,4E)-dienoyl]-pyrido[2,3-b]-1,2,3,4-tetrahydropyrazine] | 95 |
